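Growth conditions: 96-well plates. Treatment: test compound, 48 hours, 5 concentrations. Analysis: linear interpolation between bracketing concentrations; unreached endpoints set to highest concentration. GI50 marks 50% less growth.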 Calls of active or inactive are those of the source. Rule as the data show it: active = GI50 up to about 1.1 µM and inactive = higher. Where a SMILES comes first, the peptide text is derived from it. The star is where a group is joined. Boc = CC(C)(C)OC(=O)*
Tests used:
Test in all cases: DTP human tumour cell line panel, 48 h
MDA-N = system: MDA-N
DU-145 = system: DU-145
OVCAR-5 = system: OVCAR-5
HT-29 = system: HT-29
SN12C = system: SN12C
SK-OV-3 = system: SK-OV-3
LOX IMVI = system: LOX IMVI
MDA-MB-231 = system: MDA-MB-231
UACC-257 = system: UACC-257
SF-268 = system: SF-268
SK-MEL-28 = system: SK-MEL-28
K562 = system: K562
KM12 = system: KM12
A549 = system: A549
Malme-3M = system: Malme-3M
CAKI-1 = system: CAKI-1
HL-60 = system: HL-60
SR = system: SR

Row | SMILES | GI50 (MDA-N) | GI50 (DU-145) | GI50 (OVCAR-5) | GI50 (HT-29) | GI50 (SN12C) | GI50 (SK-OV-3) | GI50 (LOX IMVI) | GI50 (MDA-MB-231) | GI50 (UACC-257) | GI50 (SF-268) | GI50 (SK-MEL-28) | GI50 (K562) | GI50 (KM12) | GI50 (A549) | GI50 (Malme-3M) | GI50 (CAKI-1) | GI50 (HL-60) | GI50 (SR)
1 | CCOC(=O)C12OC(OCC)(CC1(OCC)OCC)C1(CC1)C2=O (configuration not stated) | > 100 µM (inactive) | > 100 µM (inactive) | > 100 µM (inactive) | > 100 µM (inactive) | > 100 µM (inactive) | > 100 µM (inactive) | > 100 µM (inactive) | > 100 µM (inactive) | > 100 µM (inactive) | > 100 µM (inactive) | > 100 µM (inactive) | > 100 µM (inactive) | > 100 µM (inactive) | > 100 µM (inactive) | > 100 µM (inactive) | > 100 µM (inactive) |  | 
2 | O=[N+]([O-])c1ccc(/C=N\N=c2/ccc([N+](=O)[O-])c[nH]2)cc1 | > 100 µM (inactive) | > 100 µM (inactive) | > 100 µM (inactive) | > 100 µM (inactive) | > 100 µM (inactive) | 86.9 µM (inactive) |  | 46 µM (inactive) | > 100 µM (inactive) | > 100 µM (inactive) | > 100 µM (inactive) | > 100 µM (inactive) | > 100 µM (inactive) | > 100 µM (inactive) | > 100 µM (inactive) |  | > 100 µM (inactive) | 
3 | CC1CCCC(CC(=O)O)(CC(=O)O)C1 (configuration not stated) | > 100 µM (inactive) |  | > 100 µM (inactive) | > 100 µM (inactive) | > 100 µM (inactive) |  | > 100 µM (inactive) | > 100 µM (inactive) | > 100 µM (inactive) | > 100 µM (inactive) | 7.55 µM (inactive) | > 100 µM (inactive) | > 100 µM (inactive) | > 100 µM (inactive) | > 100 µM (inactive) | > 100 µM (inactive) | > 100 µM (inactive) | > 100 µM (inactive)
4 | CCN(CC)c1ccc2cc(C(=O)Nc3ccccc3OC)c(=N)oc2c1 |  | 28.2 µM (inactive) | 44.3 µM (inactive) | 12.9 µM (inactive) |  | 72.3 µM (inactive) | 22.9 µM (inactive) |  | 40.8 µM (inactive) | 8.15 µM (inactive) | 32.9 µM (inactive) | 18.5 µM (inactive) | 33.1 µM (inactive) | 21.8 µM (inactive) | 32.3 µM (inactive) | 23.7 µM (inactive) | 7.5 µM (inactive) | 5.16 µM (inactive)
5 | CCOC(=O)c1cn(C)c(=S)n2c1nc1ccccc12 |  | > 100 µM (inactive) | > 100 µM (inactive) |  | > 100 µM (inactive) |  | 56 µM (inactive) | 91.8 µM (inactive) | > 100 µM (inactive) |  | > 100 µM (inactive) | > 100 µM (inactive) | 98.9 µM (inactive) | 62.1 µM (inactive) |  | 91.4 µM (inactive) |  | 62.5 µM (inactive)
6 | CCC(C)C(=O)OC1C(=O)OC2CC3C(C)=CC(=O)C(O)C3(C)C3C4(O)OCC23C1C(C)C4O (configuration not stated) | < 0.0169 µM (active) | < 0.019 µM (active) | 0.0776 µM (active) |  | 0.0632 µM (active) | 0.392 µM (active) | < 0.01 µM (active) | 0.032 µM (active) | 0.0223 µM (active) | < 0.0188 µM (active) | < 0.0164 µM (active) | < 0.01 µM (active) | < 0.0107 µM (active) | 0.155 µM (active) | < 0.0104 µM (active) | 0.115 µM (active) |  | 
7 | O=C(c1ccco1)N(C(=O)N1CCC(c2ccccc2)CC1)c1ccccc1 | 42.5 µM (inactive) | 83 µM (inactive) | > 100 µM (inactive) | 47.6 µM (inactive) | > 100 µM (inactive) | 81.5 µM (inactive) | 59.7 µM (inactive) | > 100 µM (inactive) | 38.9 µM (inactive) | 99.3 µM (inactive) | 62.7 µM (inactive) | 29 µM (inactive) | 27.2 µM (inactive) |  | > 100 µM (inactive) | > 100 µM (inactive) | 19.3 µM (inactive) | 
8 | COc1ccc(-c2cc(-c3ccncc3)nc(N)c2-c2ccc(F)cc2)cc1 |  |  | > 100 µM (inactive) | 11.7 µM (inactive) |  | 95.9 µM (inactive) | 22.8 µM (inactive) | > 100 µM (inactive) | 24.2 µM (inactive) | 44 µM (inactive) |  | > 100 µM (inactive) | 33.8 µM (inactive) | > 100 µM (inactive) | > 100 µM (inactive) | 32.3 µM (inactive) |  | 4.19 µM (inactive)
9 | C=CCN(CCN(CC=C)S(=O)(=O)c1ccc(C)cc1)S(=O)(=O)c1ccc(C)cc1 | > 100 µM (inactive) | > 100 µM (inactive) |  | > 100 µM (inactive) | > 100 µM (inactive) |  | 55.1 µM (inactive) | > 100 µM (inactive) | > 100 µM (inactive) | > 100 µM (inactive) | > 100 µM (inactive) | > 100 µM (inactive) | > 100 µM (inactive) | > 100 µM (inactive) |  |  |  | > 100 µM (inactive)
10 | O=C(CCO)OCCCCCC/C=C\CCCCCC/C=C\CCCCCCCCOC(=O)CCO | 17.8 µM (inactive) | 16.4 µM (inactive) | 18.3 µM (inactive) | 17.7 µM (inactive) | 17.2 µM (inactive) | 19.9 µM (inactive) | 18.4 µM (inactive) | 18.5 µM (inactive) | 17.2 µM (inactive) | 18.5 µM (inactive) | 19.5 µM (inactive) | 15.8 µM (inactive) | 19.1 µM (inactive) | 15.9 µM (inactive) | 20.5 µM (inactive) | 21.7 µM (inactive) | 12.2 µM (inactive) | 
11 | Cc1cc(-c2c(Br)cc(C(=O)O)n2C)on1 | > 100 µM (inactive) | > 100 µM (inactive) | > 100 µM (inactive) | > 100 µM (inactive) | > 100 µM (inactive) | > 100 µM (inactive) | > 100 µM (inactive) | > 100 µM (inactive) | > 100 µM (inactive) | > 100 µM (inactive) | > 100 µM (inactive) | > 100 µM (inactive) | > 100 µM (inactive) | > 100 µM (inactive) | > 100 µM (inactive) | > 100 µM (inactive) | > 100 µM (inactive) | 
12 | CSC(SC)=C(C(=O)c1ccc(Cl)cc1)n1c(=O)sc2cc(Br)ccc21 | > 100 µM (inactive) | > 100 µM (inactive) | > 100 µM (inactive) | 98.6 µM (inactive) | > 100 µM (inactive) | > 100 µM (inactive) | > 100 µM (inactive) | > 100 µM (inactive) | > 100 µM (inactive) | > 100 µM (inactive) | > 100 µM (inactive) | 36.5 µM (inactive) | > 100 µM (inactive) | > 100 µM (inactive) | > 100 µM (inactive) | 23.1 µM (inactive) | > 100 µM (inactive) | 
13 | Cc1oc(N)c(S(=O)(=O)c2ccc(Cl)cc2)c1C |  | > 100 µM (inactive) | > 100 µM (inactive) | 54.3 µM (inactive) |  | 42.6 µM (inactive) |  |  | 40.2 µM (inactive) | 43.1 µM (inactive) | > 100 µM (inactive) | 53.6 µM (inactive) | 37.1 µM (inactive) | 34.4 µM (inactive) | 29.9 µM (inactive) |  | 88.9 µM (inactive) | 86.3 µM (inactive)
14 | CCOC(=O)Cc1ccc(Nc2nc3cc(C(F)(F)F)ccc3nc2C(=O)OCC)cc1 | > 100 µM (inactive) | > 100 µM (inactive) | > 100 µM (inactive) | > 100 µM (inactive) | > 100 µM (inactive) | 51.4 µM (inactive) | > 100 µM (inactive) |  | > 100 µM (inactive) | 37.3 µM (inactive) | > 100 µM (inactive) |  | > 100 µM (inactive) | > 100 µM (inactive) | > 100 µM (inactive) | 30.1 µM (inactive) | > 100 µM (inactive) | > 100 µM (inactive)
15 | COC(=O)c1cn(CCCC(=O)O)nn1 | > 100 µM (inactive) | > 100 µM (inactive) |  | > 100 µM (inactive) | > 100 µM (inactive) |  | > 100 µM (inactive) | > 100 µM (inactive) | > 100 µM (inactive) | > 100 µM (inactive) | > 100 µM (inactive) |  | > 100 µM (inactive) | > 100 µM (inactive) | > 100 µM (inactive) | > 100 µM (inactive) |  | 
16 | CCOC(=O)c1[nH]cc(C)c1-c1ccn(-c2ccccc2)c1 | 35.6 µM (inactive) | > 100 µM (inactive) | > 100 µM (inactive) | 29.6 µM (inactive) | 89.7 µM (inactive) | > 100 µM (inactive) | 41.8 µM (inactive) |  | 35.3 µM (inactive) | 44.7 µM (inactive) | 96.2 µM (inactive) | 21.1 µM (inactive) | 19.6 µM (inactive) | 59.6 µM (inactive) |  | > 100 µM (inactive) |  | 15.6 µM (inactive)
17 | CCOC(=O)C(CC(C)C)NC(=O)C(Cc1ccccc1)NC(=O)CNC(=O)OC(C)(C)C (stereo not drawn) (Boc-Gly-Phe-Leu-OEt; configuration not given here) | 14.7 µM (inactive) | 21.3 µM (inactive) |  | 18.1 µM (inactive) | 19.2 µM (inactive) | 20.8 µM (inactive) | 18.2 µM (inactive) |  | 19.7 µM (inactive) | 21 µM (inactive) | 16.6 µM (inactive) | 19 µM (inactive) | 18.5 µM (inactive) | 18.7 µM (inactive) | 19.9 µM (inactive) | 0.145 µM (active) | 2.42 µM (inactive) | 15.8 µM (inactive)
18 | O=C(NC1CCN(Cc2ccccc2)CC1)c1ccccc1I |  | 61.9 µM (inactive) | 22.5 µM (inactive) | 16.6 µM (inactive) | 62.7 µM (inactive) | 22.4 µM (inactive) | 17.5 µM (inactive) | 24.2 µM (inactive) | 18.1 µM (inactive) | 39.3 µM (inactive) | 17.8 µM (inactive) | 23.3 µM (inactive) | 17.3 µM (inactive) | 31.6 µM (inactive) | 17.5 µM (inactive) | 53.5 µM (inactive) | 38.9 µM (inactive) | 25.6 µM (inactive)
